According to article PMC10409285 (PLOS Pathogens, 2023):
“And” between values parts separate entries of the source, which are not always exact repeats. Identical values can stand only once. Like-named read-outs stand apart in the source and are kept apart here. No end group written: not given here.

Legend:
DR2b (DRB1*15:01) = molecular target: T1, DR2b (DRB1*15:01) (Homo sapiens, UniProt P01903+P01911); experiment: fluorescence polarization competition binding assay, DR2b; settings: mean of two independent experiments
T1 construct: Soluble DRB1*15:01 and DRB5*01:01 with a covalently linked CLIP peptides; covalently linked CLIP peptide (3C-protease-cleavable linker) (cleaved yes); purchased NIH Tetramer Core Facility / Emory University (a gift of Drs. John Altman and Richard Willis, not bought)

DR2a (DRB5*01:01) = DR2a (DRB5*01:01) (Homo sapiens, UniProt P01903+Q30154); experiment: fluorescence polarization competition binding assay, DR2a
[1] = molecular target: DP4.1 (HLA-DPA1*01:03/DPB1*04:01) (Homo sapiens, UniProt P04440+P20036); experiment: fluorescence polarization competition binding assay, DP4.1
[2] = fluorescence polarization competition, […], mean of two independent experiments, read-out: Mean IC50, DR2a (DRB5*01:01)
[3] = fluorescence polarization competition, soluble DP4.1-Clip 250 nM, 25 nM Alexa488 oxytocinase probe peptide, 500 nM HLA-DM, 24 h 37°C, mean of two independent experiments, read-out: Mean IC50, DPA*01:03/DPB1*04:01

Molecule | IC50 (DR2b (DRB1*15:01)) [µM] | IC50 (DR2a (DRB5*01:01)) | IC50 (DR2a (DRB5*01:01); [2]) [µM] | IC50 [1] [µM] | IC50 [1, 3] [µM]
CC[C@H](C)[C@H](NC(=O)[C@H](CC(=O)O)NC(=O)[C@H](CO)NC(=O)[C@H](CC(C)C)NC(=O)[C@H](CCC(N)=O)NC(=O)[C@H](CCC(N)=O)NC(=O)[C@H](CO)NC(=O)[C@@H](NC(=O)[C@H](Cc1ccc(O)cc1)NC(=O)[C@H](C)NC(=O)[C@H](CC(N)=O)NC(=O)[C@H](CC(C)C)NC(=O)[C@H](C)NC(=O)[C@@H](NC(=O)[C@@H](N)CC(C)C)[C@@H](C)O)C(C)C)C(=O)O [Peptide P11.HKU1] | 0.22 | 21.3 µM |  |  | 
CC[C@H](C)[C@H](NC(=O)[C@H](CC(C)C)NC(=O)[C@H](CCC(N)=O)NC(=O)[C@H](CCC(N)=O)NC(=O)[C@@H](NC(=O)[C@@H](NC(=O)[C@H](Cc1ccc(O)cc1)NC(=O)[C@@H](NC(=O)[C@H](CCC(N)=O)NC(=O)[C@H](CC(C)C)NC(=O)[C@H](CO)NC(=O)[C@H](CCC(N)=O)NC(=O)[C@@H](N)CC(C)C)[C@@H](C)O)C(C)C)[C@@H](C)O)C(=O)N[C@@H](CCCNC(=N)N)C(=O)N[C@@H](C)C(=O)O [Peptide P11.CoV2] | 0.45 |  | 2.18 |  | 
QGLPNNTASWFTALTQH [N#7 (CoV2)] | 507 |  | 204 |  | 
CC[C@H](C)[C@H](NC(=O)[C@@H](NC(=O)CNC(=O)[C@H](CC(N)=O)NC(=O)[C@H](CCC(=O)O)NC(=O)[C@H](CC(N)=O)NC(=O)[C@H](Cc1ccc(O)cc1)NC(=O)[C@H](CCCCN)NC(=O)[C@H](CC(C)C)NC(=O)[C@H](CC(C)C)NC(=O)[C@H](Cc1ccccc1)NC(=O)[C@@H](NC(=O)[C@H](CCCNC(=N)N)NC(=O)[C@@H]1CCCN1C(=O)[C@@H](N)CCC(N)=O)[C@@H](C)O)[C@@H](C)O)C(=O)N[C@H](C(=O)O)[C@@H](C)O [S#55 (CoV2)] | 3.7 |  | 66.2 |  | 
CC[C@H](C)[C@H](NC(=O)[C@@H](NC(=O)[C@H](CC(N)=O)NC(=O)[C@H](CO)NC(=O)[C@H](CCCCN)NC(=O)[C@H](CCC(=O)O)NC(=O)[C@@H](NC(=O)[C@H](CO)NC(=O)[C@H](C)NC(=O)[C@H](Cc1ccccc1)NC(=O)[C@H](Cc1ccc(O)cc1)NC(=O)[C@@H](NC(=O)CNC(=O)[C@H](CC(=O)O)NC(=O)[C@H](CC(N)=O)NC(=O)[C@@H](N)Cc1ccccc1)C(C)C)[C@@H](C)O)[C@@H](C)CC)C(=O)O [S#18 (CoV2)] | 777 |  | 41.3 |  | 
CC[C@H](C)[C@H](NC(=O)[C@@H](NC(=O)CNC(=O)[C@H](CC(N)=O)NC(=O)[C@H](CCC(=O)O)NC(=O)[C@H](CC(N)=O)NC(=O)[C@H](Cc1ccc(O)cc1)NC(=O)[C@H](CCCCN)NC(=O)[C@H](CC(C)C)NC(=O)[C@@H](N)CC(C)C)[C@@H](C)O)C(=O)N[C@H](C(=O)N[C@@H](CC(=O)O)C(=O)N[C@@H](C)C(=O)N[C@H](C(=O)N[C@@H](CC(=O)O)C(=O)N[C@@H](CS)C(=O)O)C(C)C)[C@@H](C)O [S#56 (CoV2)] | 39.8 |  | 41.1 |  | 
CC(C)C[C@H](NC(=O)[C@H](C)NC(=O)[C@@H](NC(=O)[C@@H](N)CC(C)C)[C@@H](C)O)C(=O)N[C@@H](CC(N)=O)C(=O)N[C@@H](C)C(=O)N[C@@H](Cc1ccc(O)cc1)C(=O)N[C@H](C(=O)N[C@@H](CO)C(=O)N[C@@H](CCC(N)=O)C(=O)N[C@@H](CCC(N)=O)C(=O)N[C@@H](CC(C)C)C(=O)N[C@@H](CO)C(=O)N[C@@H](CC(=O)O)C(=O)N[C@@H](CO)C(=O)O)C(C)C [Peptide P11] | 0.14 | 63.5 µM |  |  | 
CC(C)[C@H](NC(=O)[C@H](CC(N)=O)NC(=O)CNC(=O)CNC(=O)[C@H](CO)NC(=O)[C@@H]1CCCN1)C(=O)N[C@H](C(=O)N1CCC[C@H]1C(=O)N[C@@H](Cc1ccc(O)cc1)C(=O)N[C@@H](Cc1ccc(O)cc1)C(=O)N[C@@H](CO)C(=O)N[C@@H](Cc1c[nH]c2ccccc12)C(=O)N[C@@H](Cc1ccccc1)C(=O)N[C@@H](CO)C(=O)NCC(=O)O)C(C)C [Peptide P10] | 0.26 | 72.9 µM |  |  | 
CC[C@H](C)[C@H](NC(=O)CNC(=O)[C@H](CC(N)=O)NC(=O)[C@@H](NC(=O)[C@H](Cc1ccccc1)NC(=O)[C@@H](N)CC(=O)O)[C@@H](C)CC)C(=O)N[C@@H](Cc1ccccc1)C(=O)N[C@@H](C)C(=O)N[C@@H](CCCCN)C(=O)N[C@H](C(=O)N[C@@H](CCCCN)C(=O)N[C@@H](CC(N)=O)C(=O)N[C@H](C(=O)N[C@@H](CCCCN)C(=O)N[C@H](C(=O)N[C@H](C(=O)N[C@@H](CCCCN)C(=O)O)[C@@H](C)CC)C(C)C)[C@@H](C)O)C(C)C [Peptide P12] | 17.1 | < 1 µM and 0.14 µM |  |  | 
LFYTQVYKNMAVYRS [Peptide P9] | 0.22 | < 1 µM and 0.4 µM |  |  | 
EGQQIIFYEGVNFTP [Peptide P8] | 0.23 | 5.68 µM |  |  | 
CC(C)C[C@H](NC(=O)[C@H](C)NC(=O)[C@H](C)NC(=O)[C@@H](N)CC(C)C)C(=O)N[C@@H](CC(N)=O)C(=O)N[C@@H](C)C(=O)N[C@@H](Cc1ccccc1)C(=O)N[C@H](C(=O)N[C@@H](CO)C(=O)N[C@@H](CCC(N)=O)C(=O)N[C@H](C(=O)N[C@@H](CC(C)C)C(=O)N[C@@H](CC(N)=O)C(=O)N[C@@H](CCCCN)C(=O)N[C@@H](Cc1ccc(O)cc1)C(=O)O)C(C)C)C(C)C [Peptide P11.NL63] | 0.56 | 2.1 µM |  |  | 
CC[C@H](C)[C@H](NC(=O)CNC(=O)[C@H](CC(=O)O)NC(=O)[C@H](CCC(N)=O)NC(=O)[C@H](CC(N)=O)NC(=O)[C@H](Cc1ccccc1)NC(=O)[C@H](C)NC(=O)[C@H](CC(C)C)NC(=O)[C@H](CC(C)C)NC(=O)[C@H](Cc1ccc(O)cc1)NC(=O)[C@H](CCC(N)=O)NC(=O)[C@H](CCCNC(=N)N)NC(=O)[C@@H](N)CO)C(=O)N[C@H](C(=O)N[C@@H](Cc1ccccc1)C(=O)N[C@@H](CC(N)=O)C(=O)O)[C@@H](C)CC [Peptide P13] |  | 43.8 µM |  |  | 
CC(C)C[C@H](NC(=O)[C@H](C)NC(=O)[C@H](C)NC(=O)[C@@H](N)CC(C)C)C(=O)N[C@@H](CC(N)=O)C(=O)N[C@H](C(=O)N[C@@H](Cc1ccccc1)C(=O)N[C@H](C(=O)N[C@@H](CO)C(=O)N[C@@H](Cc1c[nH]cn1)C(=O)N[C@H](C(=O)N[C@@H](CC(C)C)C(=O)N[C@H](C(=O)N[C@@H](CCCCN)C(=O)N[C@@H](Cc1ccc(O)cc1)C(=O)O)[C@@H](C)O)[C@@H](C)O)C(C)C)C(C)C [Peptide P11.229E] | 0.21 | 2.1 µM |  |  | 
CC(C)C[C@H](NC(=O)[C@H](CCCCN)NC(=O)[C@@H](NC(=O)[C@H](CCCCN)NC(=O)[C@H](CC(=O)O)NC(=O)[C@H](Cc1ccccc1)NC(=O)[C@H](CC(C)C)NC(=O)[C@H](CC(C)C)NC(=O)[C@H](CC(=O)O)NC(=O)[C@H](CCC(=O)O)NC(=O)[C@H](Cc1ccccc1)NC(=O)[C@H](Cc1ccccc1)NC(=O)[C@H](CO)NC(=O)[C@H](CCCNC(=N)N)NC(=O)[C@H](CO)NC(=O)[C@H](CO)NC(=O)[C@@H](N)CO)C(C)C)C(=O)O [HKU1-151] |  |  |  | 2.57 | 
YVYSRVKNLNSSRVPDL [E#9 (CoV2)] |  |  |  |  | 661
CC(C)C[C@H](NC(=O)[C@@H](NC(=O)[C@@H]1CCCN1C(=O)[C@@H](N)CC(N)=O)C(C)C)C(=O)N1CCC[C@H]1C(=O)N[C@@H](Cc1ccccc1)C(=O)N[C@@H](CC(N)=O)C(=O)N[C@@H](CC(=O)O)C(=O)NCC(=O)N[C@H](C(=O)N[C@@H](Cc1ccc(O)cc1)C(=O)N[C@@H](Cc1ccccc1)C(=O)N[C@@H](C)C(=O)N[C@@H](CO)C(=O)N[C@H](C(=O)N[C@@H](CCC(=O)O)C(=O)O)[C@@H](C)O)C(C)C [S#17 (CoV2)] |  |  |  |  | 76
